In paper PMC6160570, “Maprotiline Prevents Monocrotaline-Induced Pulmonary Arterial Hypertension in Rats” (Frontiers in Pharmacology, 2018):
Read-outs that look alike come from different tables or passages of the source.

What was measured:
[1] = target: T1, soluble guanylate cyclase (sGC), α1/β1 heterodimer (Homo sapiens, UniProt Q02108+Q02153); assay: SPR (Biacore T200, sGC immobilized on CM5 chip), positive control; assay type: binding; set-up: gene GUCY1B1; full-length recombinant sGC (α1 and β1 subunits coexpressed in Sf9 cells); with sGC α1 subunit (GUCY1A1, Q02108)
T1 sequence (Q02153 1-619): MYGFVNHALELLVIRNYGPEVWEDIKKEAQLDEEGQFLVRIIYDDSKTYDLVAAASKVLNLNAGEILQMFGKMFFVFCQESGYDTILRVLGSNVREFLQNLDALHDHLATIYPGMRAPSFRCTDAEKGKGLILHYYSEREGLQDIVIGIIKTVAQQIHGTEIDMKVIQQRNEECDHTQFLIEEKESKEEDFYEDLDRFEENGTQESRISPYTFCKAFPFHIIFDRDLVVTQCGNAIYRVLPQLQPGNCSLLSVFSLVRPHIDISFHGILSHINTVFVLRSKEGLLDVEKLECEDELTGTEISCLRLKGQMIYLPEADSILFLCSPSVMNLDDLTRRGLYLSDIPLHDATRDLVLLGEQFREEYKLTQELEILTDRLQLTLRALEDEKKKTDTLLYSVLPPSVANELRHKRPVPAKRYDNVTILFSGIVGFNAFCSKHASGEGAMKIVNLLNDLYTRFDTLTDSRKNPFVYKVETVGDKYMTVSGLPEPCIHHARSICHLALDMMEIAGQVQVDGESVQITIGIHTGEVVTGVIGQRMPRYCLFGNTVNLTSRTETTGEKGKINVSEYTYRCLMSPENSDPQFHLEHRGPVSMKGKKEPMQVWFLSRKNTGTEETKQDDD
T1 sequence (Q02108 1-690): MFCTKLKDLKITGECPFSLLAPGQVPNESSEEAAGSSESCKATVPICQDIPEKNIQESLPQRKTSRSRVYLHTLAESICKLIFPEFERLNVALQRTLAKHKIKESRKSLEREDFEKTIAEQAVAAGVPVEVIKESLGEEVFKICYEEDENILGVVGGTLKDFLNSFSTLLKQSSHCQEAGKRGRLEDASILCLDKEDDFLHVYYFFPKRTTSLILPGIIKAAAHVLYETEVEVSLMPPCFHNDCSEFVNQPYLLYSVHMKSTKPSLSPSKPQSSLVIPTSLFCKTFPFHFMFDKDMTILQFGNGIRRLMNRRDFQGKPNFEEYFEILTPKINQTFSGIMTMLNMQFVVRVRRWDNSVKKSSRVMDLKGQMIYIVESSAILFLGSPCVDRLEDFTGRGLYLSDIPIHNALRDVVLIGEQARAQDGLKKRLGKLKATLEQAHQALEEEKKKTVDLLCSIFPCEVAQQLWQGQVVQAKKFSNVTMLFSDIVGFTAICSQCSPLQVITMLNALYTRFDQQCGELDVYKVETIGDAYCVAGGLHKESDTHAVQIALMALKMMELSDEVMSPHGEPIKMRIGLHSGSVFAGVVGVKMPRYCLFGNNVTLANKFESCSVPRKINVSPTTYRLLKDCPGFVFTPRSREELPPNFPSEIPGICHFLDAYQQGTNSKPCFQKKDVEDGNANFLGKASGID

[2] = target: T1, soluble guanylate cyclase (sGC), α1/β1 heterodimer; set-up: gene GUCY1B1

Compound | Kd [1] [nM] | Kd [2] [nM]
OCc1ccc(-c2nn(Cc3ccccc3)c3ccccc23)o1 [YC-1] | 2180 | –
CNCCCC12CCC(c3ccccc31)c1ccccc12 [maprotiline] | – | 307
